The source of these data is patent US20090318389A1, “AGONISTS OF THE SPHINGOSINE-1 PHOSPHATE RECEPTOR” (PRAECIS PHARMACEUTICALS INCORPORATED, priority 2006, published 2009).

For test [1], the target named is T1, S1P-3 receptor (Homo sapiens, UniProt Q99500).
T1 construct: expressed in transfected cells; host or cells: HEK 293 T cells (crude membranes)
The test can be described thus: [33P]sphingosine 1-phosphate binding assay, membranes of transfected HEK 293 T cells. The conditions noted are these: 2.5 pM [33P]S1P, 60 minutes, room temperature. The method, then:
(§1) The IC50 of a compound is determined using the [^33P]sphingosine 1-phosphate binding assay, as described in Davis, M. D. et al., Sphingosine 1-Phosphate Analogs as Receptor Antagonists. J. Biol. Chem. (2005) 280:9833-9841, the entire contents of which are incorporated herein by this reference.
(§2) The ability of several of the compounds described herein to bind to the S1P-1 or S1P-3 receptor was tested as follows.
(§3) For the membrane preparation, plasmid DNA was transfected into HEK 293 T cells using the FuGENE 6 transfection protocol Briefly, subconfluent monolayers of HEK 293 T cells were transfected with the DNA mixture containing FuGENE 6 (using a 1:3 ratio). The dishes containing the cells were then placed in a tissue culture incubator (5% CO2, 37° C.). The cells were harvested 48 hours after addition of the DNA by scraping in HME buffer (in mM: 20 HEPES, 5 MgCl2, 1 EDTA, pH 7.4, 1 mM PMSF) containing 10% sucrose on ice, and disrupted using aDounce homogenizer. After centrifugation at 800×g, the supernatant was diluted with HME without sucrose and centrifuged at 17,000×g for 1 hour. This crude membrane pellet was resuspended in HME with sucrose, aliquoted, and snap-frozen by immersion in liquid nitrogen. The membranes were stored at −70° C. Protein concentration was determined spectroscopically by Bradford protein assay.
(§4) For the binding assay, [^33P]sphingosine 1-phosphate (obtained from American Radiolabeled Chemicals, Inc) was added to membranes in 200 μL in 96-well plates with assay concentrations of 2.5 pM [^33P]sphingosine 1-phosphate, 4 mg/mL BSA, 50 mM HEPES, pH 7.5, 100 mM NaCl, 5 mM MgCl2, and 5 μg of protein. Binding was performed for 60 minutes at room temperature with gentle mixing and terminated by collecting the membranes onto GF/B filter plates. After drying the filter plates for 10 minutes, 50 μL of Microscint 40 was added to each well, and filter-bound radionuclide was measured on a Packard Top Count. Nonspecific binding was defined as the amount of radioactivity remaining in the presence of excess of unlabeled S1P.

In test [2] the target is T2, S1P-1 receptor (Homo sapiens, UniProt P21453).
T2 construct: expressed in transfected cells; host or cells: HEK 293 T cells (crude membranes)
The description is as above. The conditions noted are these: for IC50: binding, 2.5 pM [33P]S1P, 60 minutes, room temperature; for IC50/IC50 (S1P-3/S1P-1): selectivity for S1P-1 over S1P-3. As for the experimental part: as §1, §2, §3, §4

Test [3] deals with T2, S1P-1 receptor. The test can be described thus: 35S-GTPγS binding assay (EC50, agonism). Format: biochemical. The conditions noted are these: 35S-GTPγS binding assay as described in WO 03/061567. As for the experimental part:
The terms “agonist” or “S1P-1 receptor agonist” as used herein include the compounds described herein which bind to and/or agonize the S1P-1 receptor. The EC50 of a compound is determined using the ^35S-GTPγS binding assay, as described in WO 03/061567, the entire contents of which are incorporated herein by reference.
On the technique in general: Binding of GTPγS marks nucleotide exchange on a G protein.

T1 sequence (Q99500 whole entry): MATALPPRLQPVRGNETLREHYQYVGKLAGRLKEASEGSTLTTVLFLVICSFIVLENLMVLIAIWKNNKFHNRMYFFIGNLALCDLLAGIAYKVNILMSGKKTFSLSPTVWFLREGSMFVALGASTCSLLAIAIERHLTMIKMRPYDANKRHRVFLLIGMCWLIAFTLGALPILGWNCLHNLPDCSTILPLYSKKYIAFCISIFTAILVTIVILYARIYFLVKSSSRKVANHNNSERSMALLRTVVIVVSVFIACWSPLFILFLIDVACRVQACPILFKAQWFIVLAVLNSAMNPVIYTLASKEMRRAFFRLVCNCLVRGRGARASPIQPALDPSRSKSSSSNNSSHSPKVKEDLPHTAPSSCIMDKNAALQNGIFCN
T2 sequence (P21453 whole entry): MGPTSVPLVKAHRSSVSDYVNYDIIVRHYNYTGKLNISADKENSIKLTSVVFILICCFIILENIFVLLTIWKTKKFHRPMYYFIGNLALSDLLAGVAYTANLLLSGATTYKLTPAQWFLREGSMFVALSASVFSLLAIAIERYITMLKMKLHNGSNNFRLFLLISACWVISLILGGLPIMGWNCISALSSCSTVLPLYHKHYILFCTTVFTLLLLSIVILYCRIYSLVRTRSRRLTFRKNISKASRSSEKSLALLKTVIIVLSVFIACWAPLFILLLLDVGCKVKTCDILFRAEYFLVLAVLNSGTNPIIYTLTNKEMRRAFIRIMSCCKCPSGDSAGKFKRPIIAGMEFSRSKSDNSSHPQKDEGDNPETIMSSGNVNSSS

As to `C[C@](N)(COP(=O)(O)O)c1nnc(-c2ccc(Sc3cccc(OCc4ccccc4)c3)c(C(F)(F)F)c2)s1`, the IC50 in test [1] is above 10000 nM; in test [2], 0.001 to 100 nM.

As to `C[C@](N)(COP(=O)(O)O)c1nnc(-c2ccc(Sc3cccc(OCc4ccccc4)c3)cc2Cl)s1`, the IC50 in test [1] lay in the range of 100 to 1000 nM; in test [2] it was 0.001 to 100 nM. Besides, the “IC50/IC50 (S1P-3/S1P-1)” value in test [2] was “++ (good receptor selectivity (>100-1,000 fold))”.

In the case of `C[C@](N)(COP(=O)(O)O)c1nnc(-c2ccc(Sc3cccc(O)c3)cc2Cl)s1`, the IC50 was above 10000 nM in test [1] and 100 to 1000 nM in test [2].

Take `C[C@](N)(COP(=O)(O)O)c1ncc(-c2ccc(Sc3cccc(OCc4ccccc4)c3)cc2Cl)[nH]1`: in test [1], the IC50 was in the range of 100 to 1000 nM. For the same compound, in test [2], the IC50 is 0.001 to 100 nM and the “IC50/IC50 (S1P-3/S1P-1)” value is on record as “+++ (great receptor selectivity (>1,000 fold))”.

The compound `C[C@](N)(COP(=O)(O)O)C(=O)Nc1ccc(Sc2cccc(OCc3ccccc3)c2)cc1Cl` [compound 7a] displayed an EC50 in test [3] of 6.9 nM.

Turning to `C[C@](N)(COP(=O)(O)O)c1ncc(-c2ccc(Sc3cccc(OCc4ccccc4)c3)c(C(F)(F)F)c2)[nH]1`, in test [1], the IC50 was 1000 to 10000 nM. Besides, in test [2], the IC50 lay in the range of 0.001 to 100 nM and the “IC50/IC50 (S1P-3/S1P-1)” value is “+++ (great receptor selectivity (>1,000 fold))”.

The IC50 is the concentration at which inhibition is half-maximal. Low values mean inhibition by little substance, high ones a need for much substance. The term EC50 denotes the concentration giving half of the maximal effect.
